Source: patent US20200255492A1, “LEPTIN PEPTIDES AND THEIR USE FOR TREATING NEUROLOGICAL DISORDERS” (UNIVERSITY OF DUNDEE, priority 2017, published 2020)

What was measured:
[1] = tested on: SH-SY5Y neuronal cultures; test: Thioflavin S staining of amyloid after seeding with Aβ1-42; format: cell-based, human; conditions: 96 hours after seeding with 1 μM Aβ1-42; leptin116-130 1 nM
Procedure: The human neuroblastoma cell line, SH-SY5Y (ECACC, UK) was maintained in Dulbecco's Modified Eagle Medium supplemented with glucose ([…]) and 10% (v/v) cosmic calf serum (Fisher Scientific, UK) at 37° C. in a humidified atmosphere of 5% CO2, 95% air and allowed to reach 70-80% confluence before seeding. Cells (passage 10-18) were plated at 2×10^5 cells on 13 mm borosilicate class coverslips or at 10 000 cells per well in 96 well tissue culture plates (Nunc, VWR, UK) prior to treatment. Reagents used were (from Sigma UK unless stated) 1 nM human leptin, leptin (116-121), leptin (117-122) and leptin (117-125); 0.0001-1 nm murine leptin fragments leptin (116-121), leptin (117-122) and leptin (116-130); 100 μM 6-hydroxydopamine; 10 μM CuCl2; […]
After 96 hours, cultures were fixed for 15 minutes in neutral buffered formalin, washed in phosphate buffered saline and stained with 0.05% Thioflavin S for 10 minutes prior to washing in phosphate buffered saline and mounting for visualisation on a fluorescent microscope. Relative fluorescent intensity per cell was determined using post hoc image analysis with Fiji software. Quantitative data is presented as the mean fluorescence per cell relative to control untreated cells.

[2] = tested on: juvenile hippocampal slices (P13-21); test: Primed burst stimulation: conversion of STP into persistent increase in synaptic transmission (fEPSP); format: cell-based, Sprague Dawley rats; conditions: 50 nM, at 40 min
Procedure: Parasagittal hippocampal slices (300 μm) were prepared from either P13-21 or 12-24-week-old male Sprague Dawley rats as previously (Moult et al. 2010). Brains were rapidly removed and placed in ice-cold artificial CSF (aCSF; bubbled with 95% O2 and 5% CO2) containing the following (in mm): 124 NaCl, 3 KCl, 26 NaHCO3, 1.25 NaH2PO4, 2 CaCl2, 1 MgSO4, and 10 d-glucose. Once prepared, parasagittal slices were allowed to recover at room temperature in oxygenated aCSF for 1 h before use. Slices were transferred to a submerged chamber maintained at room temperature and perfused with artificial cerebrospinal fluid at 2 ml min^−1. Standard extracellular recordings were used to monitor evoked field excitatory postsynaptic potentials (fEPSP) from stratum radiatum. The Schaffer collateral-commissural pathway was stimulated (constant voltage; 0.1 ms) at 0.033 Hz, using a stimulus intensity that evoked a peak amplitude ˜50% of the maximum. Synaptic potentials were low pass filtered at 2 kHz and digitally sampled at 10 kHz. The fEPSP slope was measured and expressed relative to baseline. Synaptic records are the average of 4 consecutive responses and stimulus artefacts are blanked for clarity. Recordings were made using an Axopatch 200B amplifier and analyzed using LTP v2.4 software. In synaptic plasticity studies, the degree of potentiation was calculated 30-35 min after HFS and expressed as a percentage of baseline±standard error of mean (SEM).
It is known that NMDA receptors contribute little to basal excitatory synaptic transmission but synaptic activation of NMDA receptors is crucial for LTP induction at hippocampal synapses (Bliss and Collingridge 1993). Previous studies indicate that lep-tin enhances the magnitude of activity-dependent LTP in acute hippocampal slices (Oomura et al. 2006) and following direct administration into the hippocampus in vivo (Wayner et al. 2004). We have also shown that leptin facilitates NMDA receptor-dependent synaptic plasticity as leptin promotes conversion of short term potentiation (STP) to hippocampal LTP (Shanley et al. 2001). […]

[3] = tested on: p-Tau in hippocampal neurons; test: Immunocytochemistry of phosphorylated tau and p-tau/PSD-95 co-localization; format: cell-based, Sprague-Dawley rats; conditions: for % co-localization of p-Tau and PSD-95 in Aβ1-42-treated neurons / p-Tau levels in Aβ1-42-treated neurons: Aβ1-42 1 μM plus leptin 10 nM or leptin(116-130)
Procedure: Hippocampal cultures were prepared as previously (Moult et al, 2010). Neonatal Sprague-Dawley rats (1-3 d old) were […] killed by cervical dislocation in accordance with the UK Animals (Scientific Procedures Act) 1986 legislation. Hippocampi were removed, and after washing in HEPES-buffered saline comprising (mM) 135 NaCl; 5 KCl; 1 CaCl2; 1 MgCl2; 10 HEPES; and 25 D-glucose at […], were treated with papain (1.5 mg ml21; Sigma-Aldrich) for 20 min at 37° C. Dissociated cells were plated onto sterile dishes (35 mm diameter; Greiner Bio-One, Kremsmun-ster, Austria) treated with poly-D-lysine (20 μg ml^−1; 1-2 h). Cultures were maintained in serum replacement medium (SR2; Sigma-Aldrich) in a humidified atmosphere of 5% CO2 and […] at 37° C. for up to 2 wk.
Phosphorylated tau was labelled with primary antibody rabbit anti-tau (Ab-396) polyclonal antibody (1:500, Gen Script) corresponding to phosphorylation site of serine 396 (Y-K-S^P-P-V). To visualise p-tau labelling, neurons were then incubated for 30 min with Alexa fluor555 donkey anti-rabbit IgG secondary antibody (1:250, Thermo Fisher Scientific). For synaptic localisation of p-tau, a secondary primary antibody was then added to compare p-tau localization relative to the synaptic marker, PSD95 (mouse anti-PSD-95, 1:500, Thermo Fisher Scientific) for 30 min. PSD-95 labelling was visualized by incubating with a goat anti-mouse Alexa Fluor […] antibody (1:500; Thermo Fisher Scientific) for 30 min.
A Zeiss LSM510 confocal microscope was used for image acquisition and analysis. Images were obtained using a 10-s scan speed in single tracking mode or multi-tracking mode for dual labelling experiments. The intensity of immunostaining was measured off-line using Lasersharp software (Zeiss Lasersharp), whereby analysis lines of 50 μm length were drawn along randomly selected dendritic regions. All data were obtained from at least three different cultures from different animals. Imaging conditions including illumination intensity and photomultiplier gains were kept constant between treatments for each experiment. In addition, data were normalised relative to the mean fluorescence intensity obtained from control neurons. For synaptic co-localisation experiments, tau and PSD-95 positive immunostaining were compared. The number of tau-positive sites that co-localized with PSD-95 positive sites were counted and expressed as a percentage of total positive sites (peaks of intensity).

Substance: SCSLPQTSGLQKPES (listed as Mus musculus) [leptin (116-130)]
- thioflavin S fluorescent signal per cell (amyloid accumulation) [1]: amyloid propagation following seeding is greatly reduced
- synaptic transmission after primed burst stimulation [2]: 143±6.4 % of baseline
- % co-localization of p-Tau and PSD-95 in Aβ1-42-treated neurons [3]: prevents Aβ1-42-dependent phosphorylation of tau and it trafficking to synapses
- p-Tau levels in Aβ1-42-treated neurons [3]: prevents Aβ1-42-dependent phosphorylation of tau

Substance: CSLPQT (listed as Mus musculus) [leptin (117-122)]
- thioflavin S fluorescent signal per cell (amyloid accumulation) [1]: prevent the accumulation of amyloid beta

Substance: SCSLPQ (listed as Mus musculus) [leptin (116-121)]
- thioflavin S fluorescent signal per cell (amyloid accumulation) [1]: prevent the accumulation of amyloid beta

Substance: leptin (22-56): leptin fragment amino acids 22-56 (Bachem), comparison fragment (VPIQKVQDDTKTLIKTIVTRINDISHTQSVSSKQK; UniProt P41159 22-56, looked up, fragment) [reference compound]
- synaptic transmission after primed burst stimulation [2]: only STP was observed

Substance: leptin: the metabolic hormone leptin, whole (full length) leptin molecule; human leptin from Sigma in SH-SY5Y work
- synaptic transmission after primed burst stimulation [2]: 155±6.1 % of baseline
- % co-localization of p-Tau and PSD-95 in Aβ1-42-treated neurons [3]: prevents Aβ1-42-driven tau phosphorylation and its targeting to synapses
- p-Tau levels in Aβ1-42-treated neurons [3]: prevents Aβ1-42-driven tau phosphorylation

Substance: Aβ1-42: amyloid beta 1-42, toxin used in the AD models [reference compound]
- p-Tau staining, Aβ1-42 alone ([3]; 1 μM): increases phosphorylation of tau
- synaptic levels of p-Tau (p-Tau/PSD-95), Aβ1-42 alone ([3]; 1 μM): synaptic levels of p-Tau are increased
